Activity calls are given as the source filed them. The rule behind the calls is not given here.
How the values were obtained:
[1] = Affinity for TXA2 / PGH-2 receptors in guinea pig platelets, by inhibition of [3H]U-46619 binding
Histamine H1 receptor = Histamine H1 receptor (Cavia porcellus, UniProt P31389); experiment: Inhibition of the specific binding of [3H]pyrilamine to guinea pig cerebellum histamine H1 receptor; format: tissue-based
[2] = target: Histamine H1 receptor (Cavia porcellus) (UniProt P31389); experiment: Inhibitory effect on the specific binding of [3H]pyrilamine to guinea pig cerebellum histamine H1 receptor at 1 uM; format: tissue-based
Rattus norvegicus [3] = experiment: Compound concentration inhibiting 48 hr homologous passive cutaneous Anaphylaxis in rats peroral administration; format: functional; settings: po
Rattus norvegicus [4] = experiment: Compound concentration inhibiting 48 hr homologous passive cutaneous Anaphylaxis in rats peroral administration; No efficacy; format: functional, organism-based
[5] = target: T1, Prostaglandin E2 receptor EP3 subtype (Homo sapiens, UniProt P43115); experiment: Inhibition of prostaglandin E2 receptor binding at a concentration of 10 uM; Showed negligible activities
T1 sequence (P43115 whole entry): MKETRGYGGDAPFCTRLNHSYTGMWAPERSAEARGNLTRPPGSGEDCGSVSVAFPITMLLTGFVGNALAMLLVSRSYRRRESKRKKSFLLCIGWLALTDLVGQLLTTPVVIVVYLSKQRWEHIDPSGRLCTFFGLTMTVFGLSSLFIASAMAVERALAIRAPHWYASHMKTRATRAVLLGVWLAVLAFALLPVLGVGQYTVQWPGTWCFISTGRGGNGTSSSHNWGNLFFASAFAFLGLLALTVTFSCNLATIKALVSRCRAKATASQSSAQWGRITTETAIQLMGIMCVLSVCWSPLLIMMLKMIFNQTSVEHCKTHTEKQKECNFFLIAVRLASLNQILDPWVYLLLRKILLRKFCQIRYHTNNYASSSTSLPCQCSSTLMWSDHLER

[6] = Lethal concentration in 50% rats peroral administration of compound; format: ADME, organism-based; settings: rat, in vivo, po
Histamine H2 receptor = Histamine H2 receptor (Rattus norvegicus, UniProt P25102); experiment: Inhibition of H2 histamine receptor binding at a concentration of 10 uM; Showed negligible activities
[7] = system: Alpha-1 adrenergic receptor (Rattus norvegicus); experiment: Inhibition of alpha-1 adrenergic receptor binding at a concentration of 10 uM; Showed negligible activities
[8] = target: 5-hydroxytryptamine receptor 5B (Rattus norvegicus, UniProt P35365); experiment: Inhibition of serotonin receptor binding at a concentration of 10 uM; Showed negligible activities
[9] = target: T2, Muscarinic acetylcholine receptor M1 (Homo sapiens, UniProt P11229); experiment: Inhibition of muscarinic-1 receptor binding at a concentration of 10 uM; Showed negligible activities
T2 sequence (P11229 whole entry): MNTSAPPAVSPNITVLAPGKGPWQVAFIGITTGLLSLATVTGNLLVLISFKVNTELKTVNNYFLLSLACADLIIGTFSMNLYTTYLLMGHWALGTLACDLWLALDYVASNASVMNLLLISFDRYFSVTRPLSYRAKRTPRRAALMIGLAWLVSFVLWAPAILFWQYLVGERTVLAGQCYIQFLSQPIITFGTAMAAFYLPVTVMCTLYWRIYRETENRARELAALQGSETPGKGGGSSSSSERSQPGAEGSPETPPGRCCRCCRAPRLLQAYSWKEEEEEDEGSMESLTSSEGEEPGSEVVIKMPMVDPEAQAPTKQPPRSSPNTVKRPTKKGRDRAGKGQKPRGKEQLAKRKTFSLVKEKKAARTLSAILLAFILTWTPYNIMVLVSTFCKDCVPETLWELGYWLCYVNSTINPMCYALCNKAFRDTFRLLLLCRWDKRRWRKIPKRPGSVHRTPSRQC

D(2) dopamine receptor = D(2) dopamine receptor (Rattus norvegicus, UniProt P61169); experiment: Inhibition of dopamine receptor binding at a concentration of 10 uM; Showed negligible activities
[10] = Inhibition of prostaglandin I2 receptor binding at a concentration of 10 uM; Showed negligible activities
[11] = target: Platelet-activating factor receptor (Homo sapiens, UniProt P25105); experiment: Inhibition of platelet-activating factor binding at a concentration of 10 uM; Showed negligible activities
[12] = system: Alpha-2 adrenergic receptor (Rattus norvegicus); experiment: Inhibition of alpha-2 adrenergic receptor binding at a concentration of 10 uM; Showed negligible activities
Cavia porcellus = organism: Cavia porcellus; experiment: Inhibitory effect on the specific binding of [3H]U-46619 to guinea pig platelets TXA2/PGH2 receptors at 1 uM

Histamine H1 receptor, sequence (P31389 whole entry): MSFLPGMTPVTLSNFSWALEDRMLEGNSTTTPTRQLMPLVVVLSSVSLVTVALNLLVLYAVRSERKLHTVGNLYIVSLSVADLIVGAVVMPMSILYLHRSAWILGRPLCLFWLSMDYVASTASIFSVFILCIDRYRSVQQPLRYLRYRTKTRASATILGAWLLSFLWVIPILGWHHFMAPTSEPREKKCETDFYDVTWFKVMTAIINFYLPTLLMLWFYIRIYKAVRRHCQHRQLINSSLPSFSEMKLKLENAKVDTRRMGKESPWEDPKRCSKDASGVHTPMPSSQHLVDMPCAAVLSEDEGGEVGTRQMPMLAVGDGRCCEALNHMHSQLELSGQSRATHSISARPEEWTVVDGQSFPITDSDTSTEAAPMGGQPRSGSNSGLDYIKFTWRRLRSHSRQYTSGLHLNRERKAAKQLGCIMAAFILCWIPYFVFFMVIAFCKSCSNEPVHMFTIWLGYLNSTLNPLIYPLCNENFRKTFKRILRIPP
Histamine H1 receptor (Cavia porcellus), sequence (P31389 whole entry): as above
Platelet-activating factor receptor, sequence (P25105 whole entry): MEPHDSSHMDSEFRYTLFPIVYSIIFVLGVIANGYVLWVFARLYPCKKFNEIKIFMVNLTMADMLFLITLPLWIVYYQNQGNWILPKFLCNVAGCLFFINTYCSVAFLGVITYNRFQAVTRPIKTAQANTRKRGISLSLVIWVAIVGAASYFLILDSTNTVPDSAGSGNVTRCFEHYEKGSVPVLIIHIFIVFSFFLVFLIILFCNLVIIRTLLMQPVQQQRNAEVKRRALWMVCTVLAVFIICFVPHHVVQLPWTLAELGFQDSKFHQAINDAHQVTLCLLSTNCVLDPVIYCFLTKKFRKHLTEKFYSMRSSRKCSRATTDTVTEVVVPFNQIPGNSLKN
D(2) dopamine receptor, sequence (P61169 whole entry): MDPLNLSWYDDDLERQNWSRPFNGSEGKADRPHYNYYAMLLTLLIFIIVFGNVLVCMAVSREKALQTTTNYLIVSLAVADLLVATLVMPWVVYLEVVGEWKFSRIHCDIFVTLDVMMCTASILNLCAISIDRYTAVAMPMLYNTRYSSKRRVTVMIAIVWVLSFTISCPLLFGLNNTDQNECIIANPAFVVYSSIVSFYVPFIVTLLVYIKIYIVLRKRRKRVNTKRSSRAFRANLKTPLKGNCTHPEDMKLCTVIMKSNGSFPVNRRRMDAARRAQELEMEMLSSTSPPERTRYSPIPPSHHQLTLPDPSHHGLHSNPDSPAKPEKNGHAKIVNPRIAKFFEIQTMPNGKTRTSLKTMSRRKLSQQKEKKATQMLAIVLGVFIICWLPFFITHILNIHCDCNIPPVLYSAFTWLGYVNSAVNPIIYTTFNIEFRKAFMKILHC
Histamine H2 receptor, sequence (P25102 whole entry): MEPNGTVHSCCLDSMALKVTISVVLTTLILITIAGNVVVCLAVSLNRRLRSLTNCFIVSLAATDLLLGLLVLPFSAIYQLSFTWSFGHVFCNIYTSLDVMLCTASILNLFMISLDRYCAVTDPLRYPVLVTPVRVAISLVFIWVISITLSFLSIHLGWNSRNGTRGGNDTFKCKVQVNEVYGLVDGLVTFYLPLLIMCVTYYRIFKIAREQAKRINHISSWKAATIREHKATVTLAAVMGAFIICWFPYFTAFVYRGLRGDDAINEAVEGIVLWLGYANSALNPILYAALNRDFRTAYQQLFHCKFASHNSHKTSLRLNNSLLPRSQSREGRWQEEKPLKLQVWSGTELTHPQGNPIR
5-hydroxytryptamine receptor 5B, sequence (P35365 whole entry): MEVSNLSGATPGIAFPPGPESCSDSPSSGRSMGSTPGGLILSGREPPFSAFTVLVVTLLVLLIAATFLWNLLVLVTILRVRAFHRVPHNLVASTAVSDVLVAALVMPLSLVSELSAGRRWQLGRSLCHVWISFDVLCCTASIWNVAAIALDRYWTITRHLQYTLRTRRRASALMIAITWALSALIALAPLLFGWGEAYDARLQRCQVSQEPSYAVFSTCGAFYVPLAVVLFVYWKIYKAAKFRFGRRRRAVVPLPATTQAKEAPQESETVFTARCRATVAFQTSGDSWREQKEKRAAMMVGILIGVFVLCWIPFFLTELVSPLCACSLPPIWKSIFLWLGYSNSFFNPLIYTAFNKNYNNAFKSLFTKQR

| Compound | Ki [1] | Ki (Histamine H1 receptor) | further results |
| --- | --- | --- | --- |
| O=C(O)c1ccc2c(c1)C(SCCN1CCN(c3ccc(F)cc3)CC1)c1ccccc1CO2 (centres undefined) | 400 nM | 41 nM | – |
| O=C(O)c1ccc2c(c1)C(SCCNS(=O)(=O)c1ccccc1)c1ccccc1CO2 (centres undefined) | 32 nM | – | inhibition [2]: 0% |
| O=C(O)c1ccc2c(c1)C(SCCN1CCC(Cc3ccccc3)CC1)c1ccccc1CO2 (stereo in doubt; (-)12) | 42 nM | 740 nM | – |
| CN1CCC(=C2c3ccccc3CC(=O)c3sccc32)CC1 [KETOTIFEN] | – | – | ED50 (Rattus norvegicus [3]): 4.8 mg/kg |
| O=C(O)c1ccc2c(c1)C(SCCN1CCc3ccccc3C1)c1ccccc1CO2 (centres undefined) | 240 nM | 6.9 nM | – |
| O=C(O)Cc1ccc2c(c1)C(SCCN1CCC(Cc3ccccc3)CC1)c1ccccc1CO2 (centres undefined) | 430 nM | 10 nM | – |
| O=C(O)CCc1ccc2c(c1)C(SCCN1CCC(Cc3ccccc3)CC1)c1ccccc1CO2 (centres undefined) | 340 nM | 12 nM | – |
| O=C(O)c1ccc2c(c1)C(SCCN1CCC(n3c(O)nc4ccccc43)CC1)c1ccccc1CO2 (centres undefined) | 130 nM | 500 nM | – |
| O=C(O)c1ccc2c(c1)C(SCCN1CCN(c3ccccc3)CC1)c1ccccc1CO2 (centres undefined) | 210 nM | 47 nM | – |
| O=C(O)COc1ccc(CCNS(=O)(=O)c2ccccc2)cc1 [SULOTROBAN] | – | – | ED50 (Rattus norvegicus [4]): inactive; inhibition [2]: 0% |
| O=C(O)Cc1ccc2c(c1)/C(=C\CN1CCC(Cc3ccccc3)CC1)c1ccccc1CO2 | 2600 nM | 15 nM | – |
| CN(C)C/C=C1\c2ccccc2COc2ccc(CC(=O)O)cc21 | > 1000 nM | – | ED50 (Rattus norvegicus [3]): 0.077 mg/kg |
| O=C(O)Cc1ccc2c(c1)/C(=C/CN1CCC(Cc3ccccc3)CC1)c1ccccc1CO2 | 740 nM | 20 nM | Ki [5]: Not Active; LD50 [6]: > 1000 mg/kg; Ki (Histamine H2 receptor): Not Active; Ki [7]: Not Active; ED50 (Rattus norvegicus [3]): 0.73 mg/kg; Ki [8]: Not Active; Ki [9]: Not Active; Ki (D(2) dopamine receptor): Not Active; Ki [10]: Not Active; Ki [11]: Not Active; Ki [12]: Not Active |
| CC(C)(C(=O)O)c1ccc2c(c1)C(SCCN1CCC(Cc3ccccc3)CC1)c1ccccc1CO2 (centres undefined) | 1600 nM | 17 nM | – |
| CN(C)CCSC1c2ccccc2COc2ccc(C(=O)O)cc21 (centres undefined) | – | 9 nM | ED50 (Rattus norvegicus [3]): 0.92 mg/kg; inhibition (Cavia porcellus): 18% |
| O=C(O)c1ccc2c(c1)/C(=C/CN1CCN(c3ccc(F)cc3)CC1)c1ccccc1CO2 | 2300 nM | – | inhibition [2]: 3% |
| O=C(O)c1ccc2c(c1)C(SCCN1CCC(c3ccccc3)CC1)c1ccccc1CO2 (centres undefined) | 990 nM | 20 nM | – |
| O=C(O)c1ccc2c(c1)C(SCCN1CCC(Cc3ccccc3)CC1)c1ccccc1CO2 (racemic) | 140 nM | 18 nM | – |
| O=C(O)c1ccc2c(c1)C(SCCN1CCC(Cc3ccccc3)CC1)c1ccccc1CO2 (stereo in doubt; (+)12) | 14000 nM | 9.9 nM | – |
| O=C(O)c1ccc2c(c1)/C(=C/Cn1cnc3ccccc31)c1ccccc1CO2 | 15 nM | – | – |
| O=C(O)c1ccc2c(c1)C(SCCN1CCOCC1)c1ccccc1CO2 (centres undefined) | 1900 nM | 42 nM | – |
| O=C(O)c1ccc2c(c1)C(SCCN1CCN(Cc3ccccc3)CC1)c1ccccc1CO2 (centres undefined) | 490 nM | 14 nM | – |

Reference: ChEMBL document CHEMBL1126591, “Dibenz[b,e]oxepin derivatives: novel antiallergic agents possessing thromboxane A2 and histamine H1 dual antagonizing activity. 1” (J Med Chem, 1993)
